Data: publication PMC9190012, “Heparin activation of protein Z-dependent protease inhibitor (ZPI) allosterically blocks protein Z activation through an extended heparin-binding site” (The Journal of Biological Chemistry, 2022)
Positions count from the first letter of the chain named. Read-outs that look alike come from different tables or passages of the source.

Assays:
[1] = target: T1, NBD-ZPI–PZ interactions (Homo sapiens, UniProt Q9UK55, C190A/C285S/K260C); assay: Titrations of NBD-ZPI with PZ in absence and presence of fixed levels of heparin; type: binding; settings: read-out: ZPI–heparin KD,H (predicted)
T1 construct: made in house; host or cells: Escherichia coli
T1 sequence (Q9UK55 22-444 C190A/K260C/C285S): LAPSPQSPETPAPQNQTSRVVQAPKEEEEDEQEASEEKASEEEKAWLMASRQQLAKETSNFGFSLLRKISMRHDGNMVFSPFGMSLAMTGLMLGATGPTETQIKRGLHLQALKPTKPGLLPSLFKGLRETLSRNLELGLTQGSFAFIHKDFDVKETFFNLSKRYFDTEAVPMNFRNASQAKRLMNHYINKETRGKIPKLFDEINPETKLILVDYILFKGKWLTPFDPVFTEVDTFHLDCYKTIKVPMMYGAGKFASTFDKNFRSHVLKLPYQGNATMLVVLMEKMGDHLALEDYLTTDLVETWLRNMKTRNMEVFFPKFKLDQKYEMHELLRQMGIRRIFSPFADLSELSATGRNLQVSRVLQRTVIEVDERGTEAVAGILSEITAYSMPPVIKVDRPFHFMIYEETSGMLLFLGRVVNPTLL
Description: The effect of heparin on PZ binding to ZPI was measured by titrations of 50 nM NBD-ZPI with PZ in the absence and presence of different fixed levels of heparins of various lengths in the higher ionic strength buffer used for emission spectra. Titrations were monitored from the enhancement of NBD-ZPI fluorescence that signals PZ binding. These titrations were fit by the quadratic binding equation, ΔFobs/F0=ΔFmax/F0×[ZPI]0+[PZ]0+KD,PZapp−([ZPI]0+[PZ]0+KD,PZapp)^2−4×[ZPI]0×[PZ]0/2×[ZPI]0 where ΔFobs/Fo and ΔFmax/Fo are the observed and maximal fluorescence changes after addition of PZ expressed relative to the initial free NBD-ZPI fluorescence, respectively, and KD,PZapp = KD,PZ × (1 + [H]o/KD,H) is the apparent dissociation constant for the ZPI–PZ interaction in the absence or presence of heparin. The fitted parameters were KD,PZapp and ΔFmax/Fo.

[2] = target: T2, helix C site mutant ZPI (K104A/R105A/K113A/K116A) (Homo sapiens, UniProt Q9UK55, K125A/K134A/K137A/R126A); assay: Direct heparin binding titrations monitored by intrinsic protein fluorescence quenching; settings: 1 μM helix C site mutant ZPI; quenching end point fixed at WT
T2 construct: made in house; host or cells: Escherichia coli
T2 sequence (Q9UK55 22-444 K125A/R126A/K134A/K137A): T1 sequence (Q9UK55 22-444 C190A/K260C/C285S) with K104A, R105A, K113A, K116A, A169C, C239K, S264C
Description: (§1) Fluorescence emission spectra of NBD-ZPI (50–100 nM) were measured in the absence or the presence of PZ and heparin in 20 mM Tris buffer (pH 7.4), 0.2 M NaCl, 0.1% PEG 8000, 1 mg/ml bovine serum albumin (BSA), and 2.5 mM CaCl2 with an SLM 8000 spectrofluorometer with excitation at 480 nm over the emission range of 500 to 600 nm. Intrinsic protein fluorescence of WT and mutant ZPIs (200 nM to 1 μM) was measured in the same buffer without BSA, with excitation at 280 nm over the emission range of 300 to 400 nm. Emission was monitored in 5-nm steps with 5 to 10 s of integrations per step. Spectra were obtained in triplicate and averaged. Buffer, buffer plus PZ, or buffer plus heparin background spectra were subtracted, and dilution corrections were made for added PZ or heparin (<10%). Direct equilibrium binding of heparin to ZPI was measured by titrations of unlabeled WT and variant ZPIs (0.2–1 μM) with heparin monitored by the quenching of intrinsic protein fluorescence accompanying heparin binding at excitation and emission wavelengths of 280 and 340 nm, respectively. Titrations were computer fit by the aforementioned quadratic binding equation with [H]o replacing [PZ]o and KD,H replacing KD,PZapp.

[3] = target: T3, helix H site mutant ZPI (K260A/R263A/R305A/K308A/R310A) (Homo sapiens, UniProt Q9UK55, K281A/K329A/R284A/R326A/R331A); assay: as above; settings: 200 nM helix H site mutant ZPI
T3 construct: made in house; host or cells: Escherichia coli
T3 sequence (Q9UK55 22-444 K281A/R284A/R326A/K329A/R331A): T1 sequence (Q9UK55 22-444 C190A/K260C/C285S) with A169C, C239K, K260A, R263A, S264C, R305A, K308A, R310A
Description: as §1

[4] = target: T4, WT ZPI (Homo sapiens, UniProt Q9UK55); assay: as above
T4 construct: made in house; host or cells: Escherichia coli
T4 sequence (Q9UK55 22-444): T1 sequence (Q9UK55 22-444 C190A/K260C/C285S) with A169C, C239K, S264C
Description: as §1

Kd ([1]; calculated from KD,PZapp at 211 μM heparin): 53 µM
Kd ([1]; calculated from KD,PZapp at 423 μM heparin): 44 µM
Kd [2]: 1900 ± 200 µM
Kd [3]: 142 ± 42 µM
Kd ([4]; 200 nM WT ZPI, 0.2 M NaCl buffer, pH 7.4, 25 °C): 123 ± 23 µM
maximal quenching of protein fluorescence ([4]; fit of titration by quadratic binding equation): −15 ± 1%
quenching of the protein fluorescence emission spectrum ([4]; near saturating levels of heparin (400 μM H5 or 4 μM H72)): 15 to 20%
Compound: CO[C@H]1O[C@H](COS(=O)(=O)O)[C@@H](O[C@@H]2O[C@@H](C(=O)O)[C@@H](O[C@H]3O[C@H](COS(=O)(=O)O)[C@@H](O[C@@H]4O[C@H](C(=O)O)[C@@H](O[C@H]5O[C@H](COS(=O)(=O)O)[C@@H](O)[C@H](O)[C@H]5NS(=O)(=O)O)[C@H](O)[C@H]4O)[C@H](OS(=O)(=O)O)[C@H]3NS(=O)(=O)O)[C@H](O)[C@H]2OS(=O)(=O)O)[C@H](O)[C@H]1NS(=O)(=O)O [H5, fondaparinux]
